Source: ChEMBL document CHEMBL4837239, “Identification of Thieno[3,2-d]pyrimidine Derivatives as Dual Inhibitors of Focal Adhesion Kinase and FMS-like Tyrosine Kinase 3” (J Med Chem, 2021)
Calls of active or inactive are those of the source. The calls are words filed in the database; no cut-off is given here.

Tests used:
[1] = biological target: T1, CYP1A2 (Homo sapiens, UniProt P05177); assay: Inhibition of CYP1A2 (unknown origin) at 10 uM relative to control; type: ADME
T1 sequence (P05177 whole entry): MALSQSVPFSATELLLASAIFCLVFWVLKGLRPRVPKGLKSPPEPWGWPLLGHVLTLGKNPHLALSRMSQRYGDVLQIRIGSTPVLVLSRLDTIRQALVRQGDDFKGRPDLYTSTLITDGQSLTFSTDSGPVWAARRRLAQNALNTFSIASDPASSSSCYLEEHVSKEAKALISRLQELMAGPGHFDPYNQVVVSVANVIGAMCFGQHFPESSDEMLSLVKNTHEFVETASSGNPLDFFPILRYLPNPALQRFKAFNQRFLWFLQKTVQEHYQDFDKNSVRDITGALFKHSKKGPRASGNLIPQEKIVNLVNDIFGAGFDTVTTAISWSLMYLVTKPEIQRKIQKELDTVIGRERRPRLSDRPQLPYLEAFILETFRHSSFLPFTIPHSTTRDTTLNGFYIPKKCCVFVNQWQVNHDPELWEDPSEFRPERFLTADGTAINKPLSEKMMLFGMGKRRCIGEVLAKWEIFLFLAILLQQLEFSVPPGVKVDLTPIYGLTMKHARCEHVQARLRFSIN

[2] = Oral bioavailability in rat at 5 mg/kg; type: ADME, organism-based; settings: in vivo
[3] = biological target: Non-receptor tyrosine-protein kinase TYK2 (Homo sapiens, UniProt P29597); assay: Inhibition of TYK2 (unknown origin)
[4] = biological target: T2, Focal adhesion kinase 1 (Homo sapiens, UniProt Q05397); assay: Inhibition of FAK (unknown origin)
[5] = biological target: Ephrin type-B receptor 1 (Homo sapiens, UniProt P54762); assay: Inhibition of EphB1 (unknown origin)
[6] = biological target: Casein kinase II subunit alpha (Homo sapiens, UniProt P68400); assay: Inhibition of CK2alpha1 (unknown origin) at 0.1 uM
[7] = biological target: Tyrosine-protein kinase Fes/Fps (Homo sapiens, UniProt P07332); assay: Inhibition of Fes (unknown origin) at 0.1 uM
[8] = biological target: Ephrin type-B receptor 1 (Homo sapiens) (UniProt P54762); assay: Inhibition of EphB1 (unknown origin) at 0.1 uM
[9] = test system: NCI-H23; assay: Antiproliferative activity against human NCI-H23 cells assessed as growth inhibition measured after 72 hrs by MTT assay; type: functional, cell-based
[10] = test system: BaF3; assay: Antiproliferative activity against mouse Ba/F3 cells harbouring FLT3 ITD mutant assessed as growth inhibition measured after 72 hrs by CellTiter-Glo assay; type: functional; settings: Mus musculus, BaF3
[11] = test system: BaF3; assay: Antiproliferative activity against mouse Ba/F3 cells harbouring FLT3 ITD F691L mutant assessed as growth inhibition measured after 72 hrs by CellTiter-Glo assay; type: functional; settings: Mus musculus, BaF3
[12] = biological target: T2, Focal adhesion kinase 1; assay: Inhibition of FAK autophosphorylation at Y397 in human MDA-MB-231 cells at 5 uM incubated for 24 hrs by Western blot analysis; type: cell-based
Target sequence in this assay (Q05397 2-1052 limits assumed): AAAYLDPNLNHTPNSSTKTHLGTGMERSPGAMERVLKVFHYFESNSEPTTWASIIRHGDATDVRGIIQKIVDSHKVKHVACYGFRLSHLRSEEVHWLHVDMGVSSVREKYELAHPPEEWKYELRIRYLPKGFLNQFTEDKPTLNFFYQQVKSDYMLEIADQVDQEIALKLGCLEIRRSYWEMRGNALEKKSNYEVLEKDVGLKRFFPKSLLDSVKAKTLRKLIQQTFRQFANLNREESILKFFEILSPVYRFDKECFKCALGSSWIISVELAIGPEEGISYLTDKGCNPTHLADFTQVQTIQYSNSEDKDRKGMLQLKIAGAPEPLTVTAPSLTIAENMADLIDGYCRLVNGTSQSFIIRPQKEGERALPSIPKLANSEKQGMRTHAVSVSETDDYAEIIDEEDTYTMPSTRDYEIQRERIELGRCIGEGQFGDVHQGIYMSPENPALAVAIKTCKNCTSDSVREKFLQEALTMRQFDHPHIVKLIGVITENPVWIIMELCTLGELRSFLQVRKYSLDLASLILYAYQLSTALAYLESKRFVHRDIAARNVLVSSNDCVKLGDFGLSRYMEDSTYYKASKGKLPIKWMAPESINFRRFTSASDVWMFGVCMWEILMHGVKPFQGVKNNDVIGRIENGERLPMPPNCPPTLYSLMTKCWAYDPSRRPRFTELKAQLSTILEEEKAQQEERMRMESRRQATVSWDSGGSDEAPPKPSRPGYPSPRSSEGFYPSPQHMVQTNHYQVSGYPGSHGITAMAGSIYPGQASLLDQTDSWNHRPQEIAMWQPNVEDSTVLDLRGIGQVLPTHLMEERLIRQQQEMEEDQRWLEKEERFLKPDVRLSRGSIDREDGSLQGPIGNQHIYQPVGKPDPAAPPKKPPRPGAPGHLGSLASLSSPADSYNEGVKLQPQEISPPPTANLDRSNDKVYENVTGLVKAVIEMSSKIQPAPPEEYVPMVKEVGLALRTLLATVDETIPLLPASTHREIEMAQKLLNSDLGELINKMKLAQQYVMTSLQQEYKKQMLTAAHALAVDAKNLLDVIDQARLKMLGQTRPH

[13] = test system: MDA-MB-231; assay: Induction of apoptosis in human MDA-MB-231 cells assessed as cleaved caspase-3 at 0.1 to 10 uM incubated for 24 hrs by Western blot analysis; type: functional, cell-based; settings: dose 0.1-10 µM
[14] = test system: HCT-116; assay: Growth inhibition of anchorage-Independent human HCT-116 cells assessed as decrease in number of colonies incubated for 72 hrs by MTT assay; type: functional, cell-based; settings: dose 1-10 µM
[15] = test system: MDA-MB-231; assay: Antitumor activity against human MDA-MB-231 cells xenografted in Balb/c mouse assessed as decrease in ki67 at 40 to 70 mg/kg, po once daily measured for 16 days by Immunohistochemical analysis; type: functional, organism-based; settings: dose 40-70 mg/kg, time 16.0 day
[16] = Antimigratory activity in human HCT-116 cells assessed as suppression of migration at 1 uM measured after 12 hrs by scratch wound healing assay; type: functional
[17] = test system: MDA-MB-231; assay: Antiinvasive activity in human MDA-MB-231 cells assessed as suppression of invasion measured after 12 hrs by trans well experiment; type: functional; settings: dose 0.5-1 µM, at 0.5 to 1 µM
[18] = test system: MDA-MB-231; assay: Disruption of focal adhesion of human MDA-MB-231 cells assessed as decrease in vinculin measured after 3 hrs by Alexa Fluor 488-conjugated Ab based fluorescence analysis; type: functional, cell-based; settings: dose 1-10 µM
[19] = test system: MDA-MB-231; assay: Induction of morphological changes in human MDA-MB-231 cells at 10 uM measured within 2 hrs by fluorescence analysis; type: functional, cell-based; settings: time hrs <=2
[20] = test system: MDA-MB-231; assay: Antimetastatic activity against human MDA-MB-231 cells expressing firefly luciferase xenografted NSG orthotopic mouse model assessed as reduction in luminescence intensity at 40 to 70 mg/kg, po once daily measured for 2 weeks; type: functional, organism-based; settings: dose 40-70 mg/kg
[21] = test system: T3, Receptor-type tyrosine-protein kinase FLT3 (Homo sapiens), P36888 [D835Y]; assay: Inhibition of FLT3-D835Y mutant (unknown origin) expressed in mouse Ba/F3 cells assessed as decrease in ERK phosphorylation at 10 nM by Western blot analysis; type: cell-based; settings: BaF3
T3 sequence (whole entry): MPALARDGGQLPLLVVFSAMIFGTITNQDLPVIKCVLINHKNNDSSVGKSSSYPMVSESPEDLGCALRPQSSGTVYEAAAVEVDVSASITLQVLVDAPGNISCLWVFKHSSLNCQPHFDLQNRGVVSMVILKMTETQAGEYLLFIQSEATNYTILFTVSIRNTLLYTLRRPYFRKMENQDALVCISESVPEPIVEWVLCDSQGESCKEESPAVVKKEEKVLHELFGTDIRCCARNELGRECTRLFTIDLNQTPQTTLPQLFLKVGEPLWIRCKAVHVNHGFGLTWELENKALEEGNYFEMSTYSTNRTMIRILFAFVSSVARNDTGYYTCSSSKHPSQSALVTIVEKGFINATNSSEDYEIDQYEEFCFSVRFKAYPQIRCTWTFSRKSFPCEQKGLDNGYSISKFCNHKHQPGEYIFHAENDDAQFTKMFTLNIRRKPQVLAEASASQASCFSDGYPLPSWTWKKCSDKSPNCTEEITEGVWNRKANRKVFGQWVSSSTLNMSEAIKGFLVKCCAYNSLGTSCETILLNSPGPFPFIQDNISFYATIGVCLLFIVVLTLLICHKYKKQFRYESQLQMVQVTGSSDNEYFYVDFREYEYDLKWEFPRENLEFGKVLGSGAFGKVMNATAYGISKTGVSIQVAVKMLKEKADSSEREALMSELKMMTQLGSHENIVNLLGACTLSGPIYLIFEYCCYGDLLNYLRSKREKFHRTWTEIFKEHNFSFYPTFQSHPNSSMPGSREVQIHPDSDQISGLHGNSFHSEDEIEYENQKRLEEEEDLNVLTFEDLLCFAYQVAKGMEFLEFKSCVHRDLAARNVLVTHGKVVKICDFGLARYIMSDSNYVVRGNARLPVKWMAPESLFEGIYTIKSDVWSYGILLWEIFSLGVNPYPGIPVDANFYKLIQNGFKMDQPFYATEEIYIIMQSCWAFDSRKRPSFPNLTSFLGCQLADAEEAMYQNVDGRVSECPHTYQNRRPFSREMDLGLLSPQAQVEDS

[22] = test system: MV4-11; assay: In vivo antitumor activity against human MV4-11 cells xenografted in mouse assessed as tumor growth inhibition at 50 mg/kg, po; type: functional; settings: MV4-11, po

Chain of Tyrosine-protein kinase Fes/Fps (P07332 whole entry): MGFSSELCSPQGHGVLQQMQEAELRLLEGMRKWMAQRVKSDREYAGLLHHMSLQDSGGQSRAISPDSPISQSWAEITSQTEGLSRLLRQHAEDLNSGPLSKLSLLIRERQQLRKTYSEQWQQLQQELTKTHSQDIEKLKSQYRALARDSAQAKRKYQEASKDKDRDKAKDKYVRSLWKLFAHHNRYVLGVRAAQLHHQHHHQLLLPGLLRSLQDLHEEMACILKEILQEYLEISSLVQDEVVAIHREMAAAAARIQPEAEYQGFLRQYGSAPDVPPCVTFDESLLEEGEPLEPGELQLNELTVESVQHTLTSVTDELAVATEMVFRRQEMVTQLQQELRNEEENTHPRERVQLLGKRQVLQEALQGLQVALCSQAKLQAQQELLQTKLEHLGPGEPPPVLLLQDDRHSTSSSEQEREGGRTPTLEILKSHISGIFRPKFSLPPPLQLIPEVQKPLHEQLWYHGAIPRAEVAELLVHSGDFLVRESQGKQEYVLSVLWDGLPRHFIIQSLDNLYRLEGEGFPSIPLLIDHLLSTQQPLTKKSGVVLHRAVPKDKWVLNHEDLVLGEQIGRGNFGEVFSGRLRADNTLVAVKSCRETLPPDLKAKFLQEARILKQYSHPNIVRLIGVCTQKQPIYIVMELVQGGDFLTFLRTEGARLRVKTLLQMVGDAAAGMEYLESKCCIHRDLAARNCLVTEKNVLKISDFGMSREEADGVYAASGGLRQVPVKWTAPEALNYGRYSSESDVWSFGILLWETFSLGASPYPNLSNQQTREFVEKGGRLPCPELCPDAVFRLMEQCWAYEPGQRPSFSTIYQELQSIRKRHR
Chain of Casein kinase II subunit alpha (P68400 whole entry, looked up): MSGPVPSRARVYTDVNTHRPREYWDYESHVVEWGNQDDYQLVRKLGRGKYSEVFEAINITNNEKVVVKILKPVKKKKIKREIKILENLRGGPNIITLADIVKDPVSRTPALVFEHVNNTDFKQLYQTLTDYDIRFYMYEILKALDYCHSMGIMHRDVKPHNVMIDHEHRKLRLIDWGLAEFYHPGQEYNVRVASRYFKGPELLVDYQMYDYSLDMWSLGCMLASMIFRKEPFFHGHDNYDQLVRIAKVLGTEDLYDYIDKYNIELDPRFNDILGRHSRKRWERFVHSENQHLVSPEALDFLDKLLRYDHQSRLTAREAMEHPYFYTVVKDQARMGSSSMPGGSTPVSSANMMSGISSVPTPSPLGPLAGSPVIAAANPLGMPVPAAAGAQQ
Chain of Non-receptor tyrosine-protein kinase TYK2 (P29597 whole entry): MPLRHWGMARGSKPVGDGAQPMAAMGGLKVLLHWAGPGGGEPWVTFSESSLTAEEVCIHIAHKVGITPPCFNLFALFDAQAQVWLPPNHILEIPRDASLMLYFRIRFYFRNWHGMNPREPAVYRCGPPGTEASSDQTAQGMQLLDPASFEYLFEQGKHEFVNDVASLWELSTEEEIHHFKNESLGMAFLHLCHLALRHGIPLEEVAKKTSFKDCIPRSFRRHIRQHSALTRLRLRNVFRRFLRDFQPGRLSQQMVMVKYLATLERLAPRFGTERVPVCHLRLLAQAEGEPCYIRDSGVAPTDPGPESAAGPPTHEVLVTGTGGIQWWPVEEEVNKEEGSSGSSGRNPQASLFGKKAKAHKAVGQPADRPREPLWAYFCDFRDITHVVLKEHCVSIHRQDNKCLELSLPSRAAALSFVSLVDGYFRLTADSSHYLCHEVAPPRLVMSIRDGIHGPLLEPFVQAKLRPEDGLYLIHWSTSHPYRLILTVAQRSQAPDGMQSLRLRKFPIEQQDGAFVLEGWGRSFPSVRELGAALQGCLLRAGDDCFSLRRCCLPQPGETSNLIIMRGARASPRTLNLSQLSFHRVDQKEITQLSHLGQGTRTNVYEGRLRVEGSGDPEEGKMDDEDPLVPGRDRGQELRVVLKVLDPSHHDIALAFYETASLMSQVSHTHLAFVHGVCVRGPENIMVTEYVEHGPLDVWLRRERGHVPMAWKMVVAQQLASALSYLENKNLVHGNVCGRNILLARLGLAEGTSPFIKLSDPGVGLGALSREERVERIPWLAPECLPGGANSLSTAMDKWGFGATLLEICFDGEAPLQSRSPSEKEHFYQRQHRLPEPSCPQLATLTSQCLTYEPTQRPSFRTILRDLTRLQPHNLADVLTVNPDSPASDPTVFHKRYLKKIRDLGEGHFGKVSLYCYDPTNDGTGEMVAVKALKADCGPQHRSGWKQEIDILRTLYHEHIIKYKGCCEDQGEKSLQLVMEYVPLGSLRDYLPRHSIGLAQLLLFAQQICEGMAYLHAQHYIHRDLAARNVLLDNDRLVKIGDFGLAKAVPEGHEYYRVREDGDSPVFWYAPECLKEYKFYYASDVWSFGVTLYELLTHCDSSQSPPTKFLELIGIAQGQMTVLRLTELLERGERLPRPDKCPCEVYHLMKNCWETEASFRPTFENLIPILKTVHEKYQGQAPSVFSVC
Chain of Ephrin type-B receptor 1 (P54762 whole entry): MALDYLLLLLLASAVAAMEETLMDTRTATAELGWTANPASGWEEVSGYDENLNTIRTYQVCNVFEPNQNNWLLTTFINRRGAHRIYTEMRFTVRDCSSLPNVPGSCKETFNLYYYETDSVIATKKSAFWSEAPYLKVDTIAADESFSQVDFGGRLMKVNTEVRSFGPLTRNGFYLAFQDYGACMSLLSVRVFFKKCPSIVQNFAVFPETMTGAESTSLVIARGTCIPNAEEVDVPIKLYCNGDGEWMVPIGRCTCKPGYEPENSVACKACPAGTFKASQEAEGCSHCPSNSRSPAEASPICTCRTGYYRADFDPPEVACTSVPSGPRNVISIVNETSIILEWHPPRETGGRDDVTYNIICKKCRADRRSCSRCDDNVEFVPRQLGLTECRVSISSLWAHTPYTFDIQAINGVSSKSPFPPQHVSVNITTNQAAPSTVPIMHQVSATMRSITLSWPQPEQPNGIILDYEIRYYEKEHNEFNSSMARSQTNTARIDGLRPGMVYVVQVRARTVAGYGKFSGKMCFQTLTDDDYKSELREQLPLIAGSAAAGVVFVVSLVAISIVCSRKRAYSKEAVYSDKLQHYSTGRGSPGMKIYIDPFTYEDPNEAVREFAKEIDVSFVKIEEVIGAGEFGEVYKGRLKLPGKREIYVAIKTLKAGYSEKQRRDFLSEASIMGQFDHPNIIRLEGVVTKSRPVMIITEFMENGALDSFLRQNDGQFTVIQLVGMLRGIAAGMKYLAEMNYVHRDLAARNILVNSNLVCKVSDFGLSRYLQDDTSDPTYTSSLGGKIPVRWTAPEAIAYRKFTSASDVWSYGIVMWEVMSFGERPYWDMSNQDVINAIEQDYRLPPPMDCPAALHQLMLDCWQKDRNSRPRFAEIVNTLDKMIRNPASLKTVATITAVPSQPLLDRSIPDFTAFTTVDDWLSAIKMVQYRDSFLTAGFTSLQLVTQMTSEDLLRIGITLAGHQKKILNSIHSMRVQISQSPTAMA
Chain of Ephrin type-B receptor 1 (Homo sapiens) (P54762 whole entry): as above

inhibition at 10 µM [1]: 89.2%
bioavailability [2]: 37.1%
IC50 [3]: 4.3 nM
IC50 [4]: 9.7 nM
IC50 [5]: 29.8 nM
inhibition [6]: 95.5%
inhibition [7]: 95%
inhibition [8]: 91.1%
GI50 [10]: 4 nM
GI50 [11]: 60.5 nM
inhibition [12]: Active
inhibition [21]: 100%
SMILES: CCN1CCN(c2ccc(Nc3ncc4scc(-c5cccc(NS(C)(=O)=O)c5)c4n3)cc2)CC1
Activity [9]: Active
Activity [13]: Active
growth inhibition (GI) [14]: Active
Activity [15]: Active
inhibition at 1 µM [16]: 50%
inhibition (INH) [17]: 50%
Activity [18]: Active
Activity [19]: Active
Activity [20]: Active
inhibition in vivo at 50 mg/kg [22]: 96%
